Reference: ChEMBL document CHEMBL1201862, “PubChem BioAssay data set” (2004)
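Test compounds were applied to cells in 96-well plates for 48 hours at 5 doses. Abbreviation: GI50, concentration required for 50% inhibition of growth.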 Activity calls are given as the source filed them. No stated cut-off is given here; in the data, active = GI50 up to about 1.1 µM and inactive = higher.

Columns and labels:
Assay in all cases: NCI-60 cell line screen, 48 h
PC-3 = tested on: PC-3
SK-MEL-28 = tested on: SK-MEL-28
UACC-257 = tested on: UACC-257
SK-OV-3 = tested on: SK-OV-3
A549 = tested on: A549
HCT-15 = tested on: HCT-15
ACHN = tested on: ACHN
SR = tested on: SR
UO-31 = tested on: UO-31
MDA-MB-435 = tested on: MDA-MB-435
CAKI-1 = tested on: CAKI-1
COLO 205 = tested on: COLO 205
OVCAR-5 = tested on: OVCAR-5
HCC 2998 = tested on: HCC 2998
SNB-75 = tested on: SNB-75
MDA-N = tested on: MDA-N
NCI-H23 = tested on: NCI-H23
Hs-578T = tested on: Hs-578T
SF-539 = tested on: SF-539
SW-620 = tested on: SW-620
SF-268 = tested on: SF-268
786-0 = tested on: 786-0
SNB-19 = tested on: SNB-19
K562 = tested on: K562
IGROV-1 = tested on: IGROV-1
HL-60 = tested on: HL-60
RXF 393 = tested on: RXF 393
A498 = tested on: A498
NCI/ADR-RES = tested on: NCI/ADR-RES
CCRF-CEM = tested on: CCRF-CEM
SN12C = tested on: SN12C
TK-10 = tested on: TK-10
M14 = tested on: M14
SK-MEL-2 = tested on: SK-MEL-2
LOX IMVI = tested on: LOX IMVI
RPMI-8226 = tested on: RPMI-8226
SK-MEL-5 = tested on: SK-MEL-5
OVCAR-8 = tested on: OVCAR-8
U-251 = tested on: U-251
HCT-116 = tested on: HCT-116
T47D = tested on: T47D
MOLT-4 = tested on: MOLT-4
BT-549 = tested on: BT-549
EKVX = tested on: EKVX
HT-29 = tested on: HT-29
NCI-H226 = tested on: NCI-H226
HOP-92 = tested on: HOP-92
HOP-62 = tested on: HOP-62
MCF7 = tested on: MCF7
OVCAR-4 = tested on: OVCAR-4
NCI-H522 = tested on: NCI-H522
MDA-MB-231 = tested on: MDA-MB-231
SF-295 = tested on: SF-295
Malme-3M = tested on: Malme-3M
UACC-62 = tested on: UACC-62
OVCAR-3 = tested on: OVCAR-3
DU-145 = tested on: DU-145
KM12 = tested on: KM12
NCI-H460 = tested on: NCI-H460

CCOC(=O)C(NC(=O)CC)(Nc1ccc(F)cc1F)C(F)(F)F (stereo not drawn)
GI50 (PC-3): > 100000 nM (inactive)
GI50 (SK-MEL-28): > 100000 nM (inactive)
GI50 (UACC-257): > 100000 nM (inactive)
GI50 (SK-OV-3): > 100000 nM (inactive)
GI50 (A549): > 100000 nM (inactive)
GI50 (HCT-15): > 100000 nM
GI50 (ACHN): > 100000 nM (inactive)
GI50 (SR): > 100000 nM (inactive)
GI50 (UO-31): 11800 nM (inactive)
GI50 (MDA-MB-435): 40700 nM (inactive)
GI50 (CAKI-1): 1310 nM (inactive)
GI50 (COLO 205): > 100000 nM (inactive)
GI50 (OVCAR-5): > 100000 nM (inactive)
GI50 (HCC 2998): > 100000 nM (inactive)
GI50 (SNB-75): 83000 nM (inactive)
GI50 (MDA-N): 31900 nM (inactive)
GI50 (NCI-H23): > 100000 nM (inactive)
GI50 (Hs-578T): 18200 nM (inactive)
GI50 (SF-539): > 100000 nM (inactive)
GI50 (SW-620): 85700 nM (inactive)
GI50 (SF-268): > 100000 nM (inactive)
GI50 (786-0): > 100000 nM (inactive)
GI50 (SNB-19): > 100000 nM (inactive)
GI50 (K562): 60400 nM (inactive)
GI50 (IGROV-1): > 100000 nM (inactive)
GI50 (HL-60): 34000 nM (inactive)
GI50 (RXF 393): > 100000 nM (inactive)
GI50 (A498): > 100000 nM (inactive)
GI50 (NCI/ADR-RES): > 100000 nM (inactive)
GI50 (CCRF-CEM): > 100000 nM (inactive)
GI50 (SN12C): > 100000 nM (inactive)
GI50 (TK-10): > 100000 nM (inactive)
GI50 (M14): > 100000 nM (inactive)
GI50 (SK-MEL-2): > 100000 nM (inactive)
GI50 (LOX IMVI): > 100000 nM (inactive)
GI50 (RPMI-8226): > 100000 nM (inactive)
GI50 (SK-MEL-5): > 100000 nM (inactive)
GI50 (OVCAR-8): > 100000 nM (inactive)
GI50 (U-251): > 100000 nM (inactive)
GI50 (HCT-116): > 100000 nM (inactive)
GI50 (T47D): > 100000 nM (inactive)
GI50 (MOLT-4): > 100000 nM (inactive)
GI50 (BT-549): > 100000 nM (inactive)
GI50 (EKVX): > 100000 nM (inactive)
GI50 (HT-29): > 100000 nM (inactive)

COc1cc2c3c(c4ccc(OC)c(OC)c4c2cc1OC)CN1CCC[C@@H]1C3 [TYLOCREBRINE]
GI50 (PC-3): 58.2 nM (active)
GI50 (SK-MEL-28): 30.7 nM (active)
GI50 (UACC-257): 61.2 nM (active)
GI50 (NCI-H226): < 17.6 nM (active)
GI50 (SK-OV-3): 124 nM (active)
GI50 (A549): 25.1 nM (active)
GI50 (HOP-92): < 24.6 nM (active)
GI50 (HOP-62): 31.6 nM (active)
GI50 (HCT-15): 31.2 nM
GI50 (ACHN): 44.4 nM (active)
GI50 (MCF7): 54.8 nM (active)
GI50 (SR): 36.5 nM (active)
GI50 (OVCAR-4): 30.1 nM (active)
GI50 (UO-31): < 10 nM (active)
GI50 (MDA-MB-435): 36.5 nM (active)
GI50 (CAKI-1): < 21.6 nM (active)
GI50 (NCI-H522): 31.3 nM (active)
GI50 (COLO 205): 22.8 nM (active)
GI50 (OVCAR-5): 74.5 nM (active)
GI50 (HCC 2998): 53.3 nM (active)
GI50 (SNB-75): < 10 nM (active)
GI50 (MDA-N): 62.2 nM (active)
GI50 (NCI-H23): 16 nM (active)
GI50 (Hs-578T): 18.2 nM (active)
GI50 (SF-539): 19.1 nM (active)
GI50 (MDA-MB-231): 20.4 nM (active)
GI50 (SW-620): 58.6 nM (active)
GI50 (SF-268): < 17.1 nM (active)
GI50 (786-0): < 17.3 nM (active)
GI50 (SNB-19): 16.3 nM (active)
GI50 (K562): 19.1 nM (active)
GI50 (IGROV-1): 40.7 nM (active)
GI50 (HL-60): 34.3 nM (active)
GI50 (RXF 393): < 15.5 nM (active)
GI50 (A498): < 10 nM (active)
GI50 (SF-295): 39.5 nM (active)
GI50 (Malme-3M): 24.8 nM (active)
GI50 (UACC-62): < 10 nM (active)
GI50 (NCI/ADR-RES): < 16.6 nM (active)
GI50 (CCRF-CEM): 26.9 nM (active)
GI50 (SN12C): 56.4 nM (active)
GI50 (TK-10): 57.4 nM (active)
GI50 (OVCAR-3): 107 nM (active)
GI50 (DU-145): 24.8 nM (active)
GI50 (M14): 33.3 nM (active)
GI50 (SK-MEL-2): < 15.3 nM (active)
GI50 (LOX IMVI): 24.9 nM (active)
GI50 (RPMI-8226): 32.5 nM (active)
GI50 (KM12): 42.8 nM (active)
GI50 (SK-MEL-5): 29.2 nM (active)
GI50 (OVCAR-8): < 14.6 nM (active)
GI50 (U-251): 19 nM (active)
GI50 (HCT-116): 26.6 nM (active)
GI50 (MOLT-4): 43 nM (active)
GI50 (NCI-H460): 39.2 nM (active)
GI50 (BT-549): 91.4 nM (active)
GI50 (EKVX): 17.2 nM (active)
GI50 (HT-29): 20.8 nM (active)
